± gives the expanded uncertainty stated by the source.
Test: xn = mol fraction of the nth substance listed
Details: 100 kPa, Liquid; for viscosity: Falling or rolling sphere viscometry; for mass density: Vibrating tube method

OC1CCCC1 [cyclopentanol] + CC1CCCCC1
Details | mass density [kg/m3] | viscosity [mPa·s]
293.15 K, x2 = 0 | 946.99 ± 1.5 | 11.88 ± 0.25
293.15 K, x2 = 0.0995 | 924.17 ± 1.5 | 7.639 ± 0.16
293.15 K, x2 = 0.2005 | 902.36 ± 1.4 | 4.929 ± 0.11
293.15 K, x2 = 0.2971 | 882.38 ± 1.4 | 3.505 ± 0.076
293.15 K, x2 = 0.4001 | 862.34 ± 1.4 | 2.41 ± 0.052
293.15 K, x2 = 0.5014 | 843.89 ± 1.4 | 1.793 ± 0.039
293.15 K, x2 = 0.5994 | 827.06 ± 1.3 | 1.396 ± 0.03
293.15 K, x2 = 0.6828 | 813.6 ± 1.3 | 1.166 ± 0.025
293.15 K, x2 = 0.7949 | 796.76 ± 1.3 | 0.96 ± 0.021
293.15 K, x2 = 0.8975 | 782.42 ± 1.3 | 0.826 ± 0.018
298.15 K, x2 = 0 | 943.05 ± 1.5 | 9.722 ± 0.21
298.15 K, x2 = 0.0995 | 920.12 ± 1.5 | 6.316 ± 0.14
298.15 K, x2 = 0.2005 | 898.22 ± 1.4 | 4.183 ± 0.089
298.15 K, x2 = 0.2971 | 878.17 ± 1.4 | 3.03 ± 0.065
298.15 K, x2 = 0.4001 | 858.07 ± 1.4 | 2.123 ± 0.045
298.15 K, x2 = 0.5014 | 839.58 ± 1.4 | 1.602 ± 0.034
298.15 K, x2 = 0.5994 | 822.73 ± 1.3 | 1.268 ± 0.027
298.15 K, x2 = 0.6828 | 809.25 ± 1.3 | 1.071 ± 0.023
298.15 K, x2 = 0.7949 | 792.38 ± 1.3 | 0.89 ± 0.019
298.15 K, x2 = 0.8975 | 778.04 ± 1.3 | 0.772 ± 0.017
303.15 K, x2 = 0 | 939.05 ± 1.5 | 8.068 ± 0.17
303.15 K, x2 = 0.0995 | 916.02 ± 1.5 | 5.48 ± 0.12
303.15 K, x2 = 0.2005 | 894.03 ± 1.4 | 3.587 ± 0.077
303.15 K, x2 = 0.2971 | 873.91 ± 1.4 | 2.644 ± 0.057
303.15 K, x2 = 0.4001 | 853.76 ± 1.4 | 1.885 ± 0.04
303.15 K, x2 = 0.5014 | 835.24 ± 1.3 | 1.445 ± 0.031
303.15 K, x2 = 0.5994 | 818.37 ± 1.3 | 1.16 ± 0.025
303.15 K, x2 = 0.6828 | 804.87 ± 1.3 | 0.989 ± 0.021
303.15 K, x2 = 0.7949 | 787.97 ± 1.3 | 0.827 ± 0.018
303.15 K, x2 = 0.8975 | 773.63 ± 1.2 | 0.722 ± 0.016
308.15 K, x2 = 0 | 935 ± 1.5 | 7.077 ± 0.15
308.15 K, x2 = 0.0995 | 911.87 ± 1.5 | 4.66 ± 0.099
308.15 K, x2 = 0.2005 | 889.79 ± 1.4 | 3.099 ± 0.066
308.15 K, x2 = 0.2971 | 869.61 ± 1.4 | 2.324 ± 0.05
308.15 K, x2 = 0.4001 | 849.41 ± 1.4 | 1.685 ± 0.036
308.15 K, x2 = 0.5014 | 830.86 ± 1.3 | 1.312 ± 0.028
308.15 K, x2 = 0.5994 | 813.97 ± 1.3 | 1.065 ± 0.023
308.15 K, x2 = 0.6828 | 800.45 ± 1.3 | 0.916 ± 0.02
308.15 K, x2 = 0.7949 | 783.54 ± 1.3 | 0.771 ± 0.017
308.15 K, x2 = 0.8975 | 769.19 ± 1.2 | 0.677 ± 0.015
313.15 K, x2 = 0 | 930.91 ± 1.5 | 6.04 ± 0.13
313.15 K, x2 = 0.0995 | 907.67 ± 1.5 | 4.046 ± 0.086
313.15 K, x2 = 0.2005 | 885.51 ± 1.4 | 2.695 ± 0.058
313.15 K, x2 = 0.2971 | 865.27 ± 1.4 | 2.055 ± 0.044
313.15 K, x2 = 0.4001 | 845.02 ± 1.4 | 1.514 ± 0.032
313.15 K, x2 = 0.5014 | 826.44 ± 1.3 | 1.196 ± 0.026
313.15 K, x2 = 0.5994 | 809.53 ± 1.3 | 0.982 ± 0.021
313.15 K, x2 = 0.6828 | 796 ± 1.3 | 0.851 ± 0.018
313.15 K, x2 = 0.7949 | 779.07 ± 1.3 | 0.721 ± 0.016
313.15 K, x2 = 0.8975 | 764.73 ± 1.2 | 0.636 ± 0.014
318.15 K, x2 = 0 | 926.75 ± 1.5 | 5.19 ± 0.11
318.15 K, x2 = 0.0995 | 903.41 ± 1.4 | 3.487 ± 0.074
318.15 K, x2 = 0.2005 | 881.17 ± 1.4 | 2.361 ± 0.05
318.15 K, x2 = 0.2971 | 860.88 ± 1.4 | 1.828 ± 0.039
318.15 K, x2 = 0.4001 | 840.59 ± 1.4 | 1.368 ± 0.029
318.15 K, x2 = 0.5014 | 821.99 ± 1.3 | 1.093 ± 0.023
318.15 K, x2 = 0.5994 | 805.06 ± 1.3 | 0.907 ± 0.019
318.15 K, x2 = 0.6828 | 791.51 ± 1.3 | 0.793 ± 0.017
318.15 K, x2 = 0.7949 | 774.57 ± 1.2 | 0.677 ± 0.015
318.15 K, x2 = 0.8975 | 760.23 ± 1.2 | 0.6 ± 0.013
323.15 K, x2 = 0 | 922.53 ± 1.5 | 4.441 ± 0.095
323.15 K, x2 = 0.0995 | 899.09 ± 1.4 | 3.037 ± 0.065
323.15 K, x2 = 0.2005 | 876.78 ± 1.4 | 2.081 ± 0.044
323.15 K, x2 = 0.2971 | 856.11 ± 1.4 | 1.635 ± 0.035
323.15 K, x2 = 0.4001 | 836.11 ± 1.4 | 1.241 ± 0.027
323.15 K, x2 = 0.5014 | 817.49 ± 1.3 | 1.004 ± 0.022
323.15 K, x2 = 0.5994 | 800.54 ± 1.3 | 0.842 ± 0.018
323.15 K, x2 = 0.6828 | 786.98 ± 1.3 | 0.74 ± 0.016
323.15 K, x2 = 0.7949 | 770.03 ± 1.2 | 0.636 ± 0.014
323.15 K, x2 = 0.8975 | 755.7 ± 1.2 | 0.566 ± 0.012
328.15 K, x2 = 0 | 918.24 ± 1.5 | 3.83 ± 0.082
328.15 K, x2 = 0.0995 | 894.72 ± 1.4 | 2.674 ± 0.057
328.15 K, x2 = 0.2005 | 872.33 ± 1.4 | 1.843 ± 0.039
328.15 K, x2 = 0.2971 | 851.95 ± 1.4 | 1.472 ± 0.031
328.15 K, x2 = 0.4001 | 831.58 ± 1.3 | 1.13 ± 0.024
328.15 K, x2 = 0.5014 | 812.94 ± 1.3 | 0.924 ± 0.02
328.15 K, x2 = 0.5994 | 795.97 ± 1.3 | 0.782 ± 0.017
328.15 K, x2 = 0.6828 | 782.41 ± 1.3 | 0.692 ± 0.015
328.15 K, x2 = 0.7949 | 765.45 ± 1.2 | 0.599 ± 0.013
328.15 K, x2 = 0.8975 | 751.14 ± 1.2 | 0.537 ± 0.012
333.15 K, x2 = 0 | 913.89 ± 1.5 | 3.312 ± 0.07
333.15 K, x2 = 0.0995 | 890.28 ± 1.4 | 2.366 ± 0.05
333.15 K, x2 = 0.2005 | 867.83 ± 1.4 | 1.642 ± 0.035
333.15 K, x2 = 0.2971 | 847.4 ± 1.4 | 1.329 ± 0.028
333.15 K, x2 = 0.4001 | 827 ± 1.3 | 1.033 ± 0.022
333.15 K, x2 = 0.5014 | 808.34 ± 1.3 | 0.853 ± 0.018
333.15 K, x2 = 0.5994 | 791.36 ± 1.3 | 0.731 ± 0.016
333.15 K, x2 = 0.6828 | 777.79 ± 1.3 | 0.65 ± 0.014
333.15 K, x2 = 0.7949 | 760.84 ± 1.2 | 0.566 ± 0.012
333.15 K, x2 = 0.8975 | 746.55 ± 1.2 | 0.51 ± 0.011
338.15 K, x2 = 0 | 909.48 ± 1.5 | 2.886 ± 0.061
338.15 K, x2 = 0.0995 | 885.78 ± 1.4 | 2.109 ± 0.045
338.15 K, x2 = 0.2005 | 863.28 ± 1.4 | 1.471 ± 0.031
338.15 K, x2 = 0.2971 | 842.8 ± 1.4 | 1.205 ± 0.026
338.15 K, x2 = 0.4001 | 822.37 ± 1.3 | 0.948 ± 0.02
338.15 K, x2 = 0.5014 | 803.69 ± 1.3 | 0.79 ± 0.017
338.15 K, x2 = 0.5994 | 786.71 ± 1.3 | 0.683 ± 0.015
338.15 K, x2 = 0.6828 | 773.13 ± 1.2 | 0.611 ± 0.013
338.15 K, x2 = 0.7949 | 756.2 ± 1.2 | 0.536 ± 0.012
338.15 K, x2 = 0.8975 | 741.93 ± 1.2 | 0.486 ± 0.011
343.15 K, x2 = 0 | 904.99 ± 1.4 | 2.53 ± 0.054
343.15 K, x2 = 0.0995 | 881.21 ± 1.4 | 1.879 ± 0.04
343.15 K, x2 = 0.2005 | 858.67 ± 1.4 | 1.326 ± 0.029
343.15 K, x2 = 0.2971 | 838.13 ± 1.4 | 1.108 ± 0.024
343.15 K, x2 = 0.4001 | 817.69 ± 1.3 | 0.873 ± 0.019
343.15 K, x2 = 0.5014 | 799 ± 1.3 | 0.734 ± 0.016
343.15 K, x2 = 0.5994 | 782.01 ± 1.3 | 0.641 ± 0.014
343.15 K, x2 = 0.6828 | 768.43 ± 1.2 | 0.577 ± 0.012
343.15 K, x2 = 0.7949 | 751.51 ± 1.2 | 0.517 ± 0.011
343.15 K, x2 = 0.8975 | 737.27 ± 1.2 | 0.464 ± 0.01

— the NIST ThermoML archive (doi:10.1021/acs.jced.8b01004)
